This is an account of results in ChEMBL document CHEMBL5126670, “Structure-Activity Relationships for the N-Me- Versus N-H-Amide Modification to Macrocyclic ent-Verticilide Antiarrhythmics” (ACS Med Chem Lett, 2022).

The structures appear in SMILES notation. The source made the active and inactive calls. The rule behind the calls is not given here.

The target of the assay is Ryanodine receptor 2 (Mus musculus) (UniProt E9Q401). The assay is described as follows: Inhibition of RyR2 in Casq2 gene knockout mouse cardiomyocytes assessed as reduction in calcium sparks frequency at 25 uM incubated for 15 mins by calcium sparks assay. Type of assay: cell-based. The conditions noted are these: Cardiomyocyte.
Sequence of Ryanodine receptor 2 (Mus musculus) (E9Q401 whole entry): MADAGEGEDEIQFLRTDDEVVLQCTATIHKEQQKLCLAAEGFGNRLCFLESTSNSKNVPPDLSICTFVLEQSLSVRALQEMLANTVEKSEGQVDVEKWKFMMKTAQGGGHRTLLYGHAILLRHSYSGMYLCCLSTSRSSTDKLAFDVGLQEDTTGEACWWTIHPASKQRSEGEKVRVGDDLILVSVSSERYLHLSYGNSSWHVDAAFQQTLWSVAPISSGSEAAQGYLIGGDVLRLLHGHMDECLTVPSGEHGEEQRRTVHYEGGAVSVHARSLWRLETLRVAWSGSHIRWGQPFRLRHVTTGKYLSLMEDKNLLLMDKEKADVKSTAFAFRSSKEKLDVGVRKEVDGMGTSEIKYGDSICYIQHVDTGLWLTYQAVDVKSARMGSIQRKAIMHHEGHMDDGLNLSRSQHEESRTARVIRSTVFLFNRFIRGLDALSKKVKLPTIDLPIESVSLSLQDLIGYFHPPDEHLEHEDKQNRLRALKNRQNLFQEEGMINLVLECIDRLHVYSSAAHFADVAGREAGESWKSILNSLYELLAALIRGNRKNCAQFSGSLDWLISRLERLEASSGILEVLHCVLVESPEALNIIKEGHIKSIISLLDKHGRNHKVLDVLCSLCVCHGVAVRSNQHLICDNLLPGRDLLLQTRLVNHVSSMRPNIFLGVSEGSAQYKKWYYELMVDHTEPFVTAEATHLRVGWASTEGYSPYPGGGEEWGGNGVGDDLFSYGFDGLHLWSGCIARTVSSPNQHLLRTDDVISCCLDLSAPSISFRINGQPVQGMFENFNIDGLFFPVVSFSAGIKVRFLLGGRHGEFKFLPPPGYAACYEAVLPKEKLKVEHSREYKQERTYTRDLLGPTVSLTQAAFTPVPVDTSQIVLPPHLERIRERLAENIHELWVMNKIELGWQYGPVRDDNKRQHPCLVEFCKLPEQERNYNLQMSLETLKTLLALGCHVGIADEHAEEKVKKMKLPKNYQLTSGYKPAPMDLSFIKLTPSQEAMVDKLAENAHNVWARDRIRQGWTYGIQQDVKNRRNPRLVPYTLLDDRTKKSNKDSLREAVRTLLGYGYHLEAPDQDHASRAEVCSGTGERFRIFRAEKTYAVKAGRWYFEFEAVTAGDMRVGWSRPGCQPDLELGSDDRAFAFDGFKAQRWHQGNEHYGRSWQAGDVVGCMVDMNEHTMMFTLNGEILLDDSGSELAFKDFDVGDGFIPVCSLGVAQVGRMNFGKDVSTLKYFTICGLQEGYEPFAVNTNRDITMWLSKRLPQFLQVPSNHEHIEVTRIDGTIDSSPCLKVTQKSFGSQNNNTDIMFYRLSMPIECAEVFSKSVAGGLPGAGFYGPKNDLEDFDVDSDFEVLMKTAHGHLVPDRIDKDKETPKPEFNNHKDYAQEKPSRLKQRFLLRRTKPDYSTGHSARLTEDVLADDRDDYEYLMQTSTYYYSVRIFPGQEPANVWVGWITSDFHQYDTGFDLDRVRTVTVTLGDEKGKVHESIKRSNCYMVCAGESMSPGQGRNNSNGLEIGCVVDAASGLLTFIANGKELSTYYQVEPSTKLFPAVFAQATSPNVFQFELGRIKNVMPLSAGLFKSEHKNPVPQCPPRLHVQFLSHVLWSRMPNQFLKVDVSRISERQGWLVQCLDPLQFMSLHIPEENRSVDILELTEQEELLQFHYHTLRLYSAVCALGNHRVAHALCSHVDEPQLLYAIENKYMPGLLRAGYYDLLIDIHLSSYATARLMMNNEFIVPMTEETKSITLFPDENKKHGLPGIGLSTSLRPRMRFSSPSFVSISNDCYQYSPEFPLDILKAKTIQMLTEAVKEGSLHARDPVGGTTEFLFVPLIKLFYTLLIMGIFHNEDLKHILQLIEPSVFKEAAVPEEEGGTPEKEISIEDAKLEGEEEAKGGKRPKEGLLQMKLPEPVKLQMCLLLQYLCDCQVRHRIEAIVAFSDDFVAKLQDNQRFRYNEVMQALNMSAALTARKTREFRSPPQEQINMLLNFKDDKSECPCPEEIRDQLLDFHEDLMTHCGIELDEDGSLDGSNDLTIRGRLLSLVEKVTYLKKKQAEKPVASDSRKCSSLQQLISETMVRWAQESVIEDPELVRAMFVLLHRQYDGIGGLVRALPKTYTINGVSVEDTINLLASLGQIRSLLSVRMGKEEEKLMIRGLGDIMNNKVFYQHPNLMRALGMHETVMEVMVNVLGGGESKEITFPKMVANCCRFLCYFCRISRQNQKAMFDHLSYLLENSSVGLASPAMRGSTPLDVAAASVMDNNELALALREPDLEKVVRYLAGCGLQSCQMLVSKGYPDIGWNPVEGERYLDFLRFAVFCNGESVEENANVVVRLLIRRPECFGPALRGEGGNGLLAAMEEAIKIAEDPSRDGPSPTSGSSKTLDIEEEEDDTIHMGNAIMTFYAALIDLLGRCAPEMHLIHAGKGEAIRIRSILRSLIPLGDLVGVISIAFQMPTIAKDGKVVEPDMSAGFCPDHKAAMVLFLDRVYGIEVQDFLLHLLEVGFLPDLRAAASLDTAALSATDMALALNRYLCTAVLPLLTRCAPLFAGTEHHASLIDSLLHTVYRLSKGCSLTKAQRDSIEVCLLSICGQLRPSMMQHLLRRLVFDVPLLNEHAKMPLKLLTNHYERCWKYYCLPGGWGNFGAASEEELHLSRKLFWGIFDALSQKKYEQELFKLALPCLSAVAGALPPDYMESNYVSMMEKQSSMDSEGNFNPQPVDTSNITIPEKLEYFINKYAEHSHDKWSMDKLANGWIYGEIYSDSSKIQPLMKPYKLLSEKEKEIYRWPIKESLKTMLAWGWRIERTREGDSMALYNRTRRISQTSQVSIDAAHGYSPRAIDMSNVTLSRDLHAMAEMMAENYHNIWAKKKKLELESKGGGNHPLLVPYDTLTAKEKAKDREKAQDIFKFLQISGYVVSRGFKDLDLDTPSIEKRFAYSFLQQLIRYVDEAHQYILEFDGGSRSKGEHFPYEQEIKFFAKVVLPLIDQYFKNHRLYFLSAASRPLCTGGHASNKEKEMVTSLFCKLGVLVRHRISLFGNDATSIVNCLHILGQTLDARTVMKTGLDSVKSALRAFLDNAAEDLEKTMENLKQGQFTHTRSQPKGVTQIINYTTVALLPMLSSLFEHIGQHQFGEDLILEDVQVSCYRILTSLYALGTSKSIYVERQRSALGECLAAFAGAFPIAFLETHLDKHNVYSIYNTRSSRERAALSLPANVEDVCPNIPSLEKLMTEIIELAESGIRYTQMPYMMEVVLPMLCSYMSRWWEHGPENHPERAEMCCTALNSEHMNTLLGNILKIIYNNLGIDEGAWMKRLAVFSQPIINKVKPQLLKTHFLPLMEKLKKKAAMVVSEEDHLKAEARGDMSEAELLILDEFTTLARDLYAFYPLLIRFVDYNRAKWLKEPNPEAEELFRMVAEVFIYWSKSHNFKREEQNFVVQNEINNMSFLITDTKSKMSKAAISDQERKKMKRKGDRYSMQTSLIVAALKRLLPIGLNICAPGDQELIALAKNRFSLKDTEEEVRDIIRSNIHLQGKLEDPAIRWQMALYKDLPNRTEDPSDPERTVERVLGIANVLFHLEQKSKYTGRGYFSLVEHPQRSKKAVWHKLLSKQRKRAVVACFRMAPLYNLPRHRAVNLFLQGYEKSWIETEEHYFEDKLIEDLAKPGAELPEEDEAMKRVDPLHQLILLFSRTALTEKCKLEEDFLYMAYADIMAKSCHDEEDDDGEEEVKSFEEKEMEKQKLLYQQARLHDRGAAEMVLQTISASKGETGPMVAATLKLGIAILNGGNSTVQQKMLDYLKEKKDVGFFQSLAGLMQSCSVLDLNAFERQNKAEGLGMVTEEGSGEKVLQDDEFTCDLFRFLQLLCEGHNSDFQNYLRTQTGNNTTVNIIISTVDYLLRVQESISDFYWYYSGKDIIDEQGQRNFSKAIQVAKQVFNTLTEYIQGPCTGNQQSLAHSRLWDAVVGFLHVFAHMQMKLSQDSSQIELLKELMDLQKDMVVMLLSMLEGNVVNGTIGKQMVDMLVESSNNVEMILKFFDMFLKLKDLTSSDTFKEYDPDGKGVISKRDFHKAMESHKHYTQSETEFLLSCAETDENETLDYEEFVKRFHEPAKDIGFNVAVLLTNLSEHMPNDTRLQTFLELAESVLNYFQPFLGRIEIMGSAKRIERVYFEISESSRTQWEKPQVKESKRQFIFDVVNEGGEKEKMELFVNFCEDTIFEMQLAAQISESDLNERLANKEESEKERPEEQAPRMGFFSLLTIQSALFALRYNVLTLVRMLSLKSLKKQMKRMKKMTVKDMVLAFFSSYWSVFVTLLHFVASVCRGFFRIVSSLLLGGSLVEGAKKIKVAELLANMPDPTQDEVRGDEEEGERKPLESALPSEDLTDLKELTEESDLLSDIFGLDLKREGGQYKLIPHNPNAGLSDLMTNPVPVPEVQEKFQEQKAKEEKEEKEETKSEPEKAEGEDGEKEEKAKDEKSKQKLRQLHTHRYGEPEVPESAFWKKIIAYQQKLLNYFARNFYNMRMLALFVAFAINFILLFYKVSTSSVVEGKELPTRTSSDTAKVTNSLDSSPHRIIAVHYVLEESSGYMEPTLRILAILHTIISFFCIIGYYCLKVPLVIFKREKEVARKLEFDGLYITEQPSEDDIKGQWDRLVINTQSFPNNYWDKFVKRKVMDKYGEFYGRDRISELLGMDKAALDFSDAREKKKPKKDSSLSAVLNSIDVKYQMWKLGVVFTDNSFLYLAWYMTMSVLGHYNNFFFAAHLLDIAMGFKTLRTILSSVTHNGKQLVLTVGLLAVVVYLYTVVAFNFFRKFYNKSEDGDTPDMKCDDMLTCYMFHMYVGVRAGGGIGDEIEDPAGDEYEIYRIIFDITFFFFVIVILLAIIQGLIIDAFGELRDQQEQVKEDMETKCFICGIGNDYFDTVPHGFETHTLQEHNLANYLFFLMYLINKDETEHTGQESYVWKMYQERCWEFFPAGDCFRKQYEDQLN
On to `CCCCC[C@@H]1OC(=O)[C@@H](C)NC(=O)[C@H](CCCCC)OC(=O)[C@@H](C)NC(=O)[C@H](CCCCC)OC(=O)[C@@H](C)NC1=O`, for which the inhibition entry was “Active”.

In the case of `CCCCC[C@@H]1OC(=O)[C@@H](C)N(C)C(=O)[C@H](CCCCC)OC(=O)[C@@H](C)NC(=O)[C@H](CCCCC)OC(=O)[C@@H](C)NC1=O`, the inhibition entry is “Active”.

Regarding `CCCCC[C@@H]1OC(=O)[C@@H](C)N(C)C(=O)[C@H](CCCCC)OC(=O)[C@@H](C)N(C)C(=O)[C@H](CCCCC)OC(=O)[C@@H](C)NC1=O`, the inhibition result was “Active”.

For `CCCCC[C@@H]1OC(=O)[C@@H](C)N(C)C(=O)[C@H](CCCCC)OC(=O)[C@@H](C)N(C)C(=O)[C@H](CCCCC)OC(=O)[C@@H](C)N(C)C1=O`, the inhibition entry is “Active”.
